Data from PubChem BioAssay (NCI).
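Dose response: 5 concentrations. Exposure: 48 h. Format: 96-well plates. Endpoint: linear interpolation; highest concentration if not reached. GI50 is the concentration that inhibits growth by half. At the TGI there is no net growth.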

Key:
Assay in all cases: NCI anticancer screen, dose series, 48 h
COLO 205 colon = test system: COLO 205 colon
HL-60(TB) leukemia = test system: HL-60(TB) leukemia
HOP-62 NSCLC = test system: HOP-62 NSCLC
SN12C renal = test system: SN12C renal
TK-10 renal = test system: TK-10 renal
A498 renal = test system: A498 renal
786-0 renal = test system: 786-0 renal
RXF 393 renal = test system: RXF 393 renal
SK-MEL-28 melanoma = test system: SK-MEL-28 melanoma
SNB-19 CNS = test system: SNB-19 CNS
CCRF-CEM leukemia = test system: CCRF-CEM leukemia
HCC-2998 colon = test system: HCC-2998 colon
HCT-116 colon = test system: HCT-116 colon
SF-268 CNS = test system: SF-268 CNS
DU-145 prostate = test system: DU-145 prostate
OVCAR-4 ovarian = test system: OVCAR-4 ovarian
SF-539 CNS = test system: SF-539 CNS
SK-MEL-2 melanoma = test system: SK-MEL-2 melanoma
SK-OV-3 ovarian = test system: SK-OV-3 ovarian
SK-MEL-5 melanoma = test system: SK-MEL-5 melanoma
SNB-75 CNS = test system: SNB-75 CNS
BT-549 breast = test system: BT-549 breast
HS 578T breast = test system: HS 578T breast
SW-620 colon = test system: SW-620 colon
SF-295 CNS = test system: SF-295 CNS
SR leukemia = test system: SR leukemia
PC-3 prostate = test system: PC-3 prostate
RPMI-8226 leukemia = test system: RPMI-8226 leukemia
NCI-H23 lung = test system: NCI-H23 lung

With Nc1c(C(=O)Nc2ccccc2Cl)sc2nc3c(cc12)C(=O)CCC3 the GI50 (COLO 205 colon) was 0.724 µM, the TGI (COLO 205 colon) was 3.54 µM and the GI50 (HL-60(TB) leukemia) was 3.72 µM. The TGI (HL-60(TB) leukemia) was greater than 100 µM, the GI50 (HOP-62 NSCLC) was 4.33 µM and the TGI (HOP-62 NSCLC) was greater than 67.3 µM. For the same compound, the GI50 (SN12C renal) was greater than 100 µM, the TGI (SN12C renal) was greater than 100 µM and the GI50 (TK-10 renal) was 78.6 µM. For the same compound, the TGI (TK-10 renal) was greater than 100 µM, the GI50 (A498 renal) was 0.229 µM and the TGI (A498 renal) was greater than 100 µM. For the same compound, the GI50 (786-0 renal) was 37.7 µM, the TGI (786-0 renal) was greater than 100 µM and the GI50 (RXF 393 renal) was 2.37 µM. For the same compound, the TGI (RXF 393 renal) was greater than 28.7 µM, the GI50 (SK-MEL-28 melanoma) was 22.4 µM and the TGI (SK-MEL-28 melanoma) was greater than 100 µM. The GI50 (SNB-19 CNS) was 12.5 µM, the TGI (SNB-19 CNS) was greater than 100 µM and the GI50 (CCRF-CEM leukemia) was greater than 100 µM. The TGI (CCRF-CEM leukemia) was greater than 100 µM, the GI50 (HCC-2998 colon) was 21.2 µM and the TGI (HCC-2998 colon) was greater than 100 µM. The GI50 (HCT-116 colon) was 54.9 µM, the TGI (HCT-116 colon) was greater than 100 µM and the GI50 (SF-268 CNS) was 39.3 µM. It also gave a TGI (SF-268 CNS) greater than 100 µM, a GI50 (DU-145 prostate) of 10.3 µM and a TGI (DU-145 prostate) greater than 100 µM. It also gave a GI50 (OVCAR-4 ovarian) greater than 27.5 µM, a TGI (OVCAR-4 ovarian) greater than 100 µM and a GI50 (SF-539 CNS) of 1.15 µM. The TGI (SF-539 CNS) was greater than 100 µM, the GI50 (SK-MEL-2 melanoma) was 1.09 µM and the TGI (SK-MEL-2 melanoma) was greater than 100 µM. The GI50 (SK-OV-3 ovarian) was 0.782 µM, the TGI (SK-OV-3 ovarian) was greater than 50.5 µM and the GI50 (SK-MEL-5 melanoma) was 1.02 µM. For the same compound, the TGI (SK-MEL-5 melanoma) was greater than 100 µM, the GI50 (SNB-75 CNS) was 2.46 µM and the TGI (SNB-75 CNS) was greater than 84 µM. The GI50 (BT-549 breast) was greater than 100 µM, the TGI (BT-549 breast) was greater than 100 µM and the GI50 (HS 578T breast) was 3.56 µM. For the same compound, the TGI (HS 578T breast) was greater than 100 µM, the GI50 (SW-620 colon) was 0.556 µM and the TGI (SW-620 colon) was greater than 100 µM. It also gave a GI50 (SF-295 CNS) of 0.542 µM, a TGI (SF-295 CNS) greater than 27.5 µM and a TGI (SR leukemia) greater than 100 µM. The GI50 (PC-3 prostate) was 1.16 µM, the TGI (PC-3 prostate) was greater than 100 µM and the GI50 (RPMI-8226 leukemia) was greater than 100 µM. The TGI (RPMI-8226 leukemia) was greater than 100 µM and the GI50 (NCI-H23 lung) was 2.04 µM.
